Assays:
[1] = system: HeLa; assay: Sulforhodamine B (SRB) assay; format: cell-based; conditions: Homo sapiens; HeLa cervical cancer cells, 48 h, SRB
Description: (§1) The human MDA-MB-231, MCF7, MDA-MB-468, RPMI-8226 and HeLa cell lines were purchased from ATCC and maintained in Dulbecco's Modified Eagle Medium (DMEM)—high glucose supplemented with 10% fetal bovine serum (FBS) and antibiotics/antimycotics. Cell line authentication was carried out by Genetica DNA Laboratories (Burlington, NC) using a short tandem repeat (STR) profiling method (March 2015; July 2015; September 2016). Melanoma cells E-055 (MZ-Mel-3), E-097 (Mel-SOE), E-112 (UKRV-Mel-38), E-157 (UKRV-Mel-17) were obtained from the European Searchable Tumour Line Database (ESTDAB) cell bank (a kind gift of Dr. Graham Pawelec, Tubingen University, Germany). MDA-MB-435 was purchased from the Division of Cancer Treatment and Diagnosis Tumor Repository. All melanoma cells were cultured in Roswell Park Memorial Institute (RPMI) medium supplemented with 10% FBS and P/S/antimycotics. Primary human epidermal melanocytes from normal adult abdominal skin were purchased from ATCC (cat # PCS-200–013) and Cell Applications (cat#104-05a). The melanocytes were cultured in the media supplied by the companies.
(§2) The SRB assay was used to assess drug-induced cytotoxicity and cell proliferation as previously described[2],[33],[34] with a few modifications. Briefly, cells were plated 10,000 to 25,000 cells/cm^2 in 96-well plates (100 µl medium) and allowed to adhere overnight. The cell counts were different for each cell line to ensure optimal cell growth for the duration of the assay. Eight different concentrations of compound solutions using 2–4 times serial dilutions (100 µl). Cells were then incubated for an additional 48 h and then fixed with 100 µl ice-cold 10% (w/v) trichloroacetic acid (TCA) (without removing the cell medium, final concentration, 3.3% of TCA) and stained with 0.4% SRB (w/v) in 1% acetic acid (v/v). The relative growth rate (%) was calculated for each of the compound concentrations according to the following formula: 100 * (T − T0)/(C − T0), in which T is the optical density (OD) after exposure to a certain concentration of the compound after 48 h, T0 is the OD at the start of drug exposure (time zero) and C is the control growth. The GI50 for each compound was obtained from a non-linear sigmoidal dose–response (variable slope) curve fitted by GraphPad Prism v.4.03 software.

[2] = system: MCF7; assay: Sulforhodamine B (SRB) assay; format: cell-based; conditions: Homo sapiens; MCF7 breast cancer cells, 48 h, SRB
Description: as §1, §2

[3] = system: MDA-MB231; assay: Sulforhodamine B (SRB) assay; format: cell-based; conditions: Homo sapiens, MDA-MB-231; MDA-MB231 breast cancer cells, 48 h, SRB
Description: as §1, §2

[4] = system: MDA-MB435; assay: Sulforhodamine B (SRB) assay; format: cell-based; conditions: Homo sapiens, MDA-MB-435, MDA-MB435 cells, 48 h
Description: as §1, §2

[5] = system: MDA-MB468; assay: Sulforhodamine B (SRB) assay; format: cell-based; conditions: Homo sapiens, MDA-MB-468, MDA-MB468 breast cancer cells, 48 h
Description: as §1, §2

[6] = system: MZ-Mel-3; assay: Sulforhodamine B (SRB) assay; format: cell-based; conditions: MZ-Mel-3 melanoma cells, 48 h
Description: as §1, §2

[7] = system: Mel-SOE; assay: Sulforhodamine B (SRB) assay; format: cell-based; conditions: Mel-SOE melanoma cells, 48 h
Description: as §1, §2

[8] = system: UKRV-Mel-17; assay: Sulforhodamine B (SRB) assay; format: cell-based; conditions: UKRV-Mel-17 melanoma cells, 48 h
Description: as §1, §2

[9] = system: UKRV-Mel-38; assay: Sulforhodamine B (SRB) assay; format: cell-based; conditions: UKRV-Mel-38 melanoma cells, 48 h
Description: as §1, §2

[10] = system: MDA-MB231-TaxR; assay: Sulforhodamine B (SRB) assay; format: cell-based; conditions: Homo sapiens, MDA-MB231-TaxR paclitaxel-resistant breast cancer cells, 48 h
Text: We had initially determined that quinolone chalcones were promising anti-proliferative through a first round screening and identified CTR-17 and CTR-20 as favorable structures for anticancer activity. […] We carried out a comparative SAR study to determine if we could further optimize the quinolone chalcone to maximize efficacy. The Sulforhodamine B (SRB) assay was used to measure the anti-proliferative/cell killing activities of CTRs, for which several different cell lines were use: the cervical cancer HeLa, the breast cancer cell lines MDA-MB231, MDA-MB468, MDA-MB231TaxR (an induced paclitaxel-resistant sub-cell line of the MDA-MB231[9]) and MCF7. In addition, a subset was tested against the melanoma cell lines MZ-MEL-3.1, Mel-SOE, UKRV-Mel-38, UKRV-Mel-17 and MDA-MB-435 (Table 1, Supplemental Table S1).
as §2

[11] = system: HeLa cells; assay: Cell cycle analysis by flow cytometry; format: cell-based, human; conditions: 3× GI50, 12 or 24 h, HeLa and UKRV-Mel-38 (Supplemental Fig. S11)
Description: Figure 5 CTR-21 arrests cells at G2/M, eventually leading to cell death by apoptosis. (a) Effects of CTR-21 on the cell cycle progression of HeLa and E112 cells. […] (b) Cell morphology of CTR-21 arrested cells. HeLa cells were treated with 30 nM of CTR-21 for 12 h, fixed with methanol and immunostained with α-tubulin or γ-tubulin, and counterstained with DAPI. Bar = […]. (c) CTR-21 promotes PARP cleavage. […] GAPDH was used as a loading control.
Cell cycle progression was determined using flow cytometry. UKRV-Mel-38 and HeLa cells were plated onto 10 cm plate at a density of 0.5 million and treated them with or without the compounds the following day for 12, 24 or 48 h. Cells were then harvested and centrifuged at 1000 rpm for 5 min, washed in PBS and then fixed with ice-cold ethanol (70%) for at least 24 h at − 20 °C. The cells were centrifuged, re-suspended in PBS solution, followed by centrifugation. The cell pellet was then stained with 100 μg/mL propidium iodide (PI) and 100 μg/mL RNase A in distilled water for at least 1 h. DNA content was measured using a Beckmann Coulter Cytomics FC500 (Beckman Coulter, Fullerton, CA), and the proportion of cell populations in G0/G1, S, and G2/M phases of cell cycle was calculated on the basis of DNA distribution histograms using CXP software (Beckman Coulter, Fullerton, CA).

[12] = system: cancer cell lines (breast cancer, melanoma, cervical cancer); assay: SRB assay, average GI50 over cancer cell lines; format: cell-based
Description: as §2

[13] = target: T1, porcine tubulin (Sus scrofa, UniProt P02550+P02554); assay: In vitro tubulin polymerization assay; format: biochemical; conditions: 3 µM compound, 20 µM porcine tubulin, 37 °C, 60 min
T1 construct: purchased Cytoskeleton Inc., Denver, CO BK011P
T1 sequence (P02554 whole entry): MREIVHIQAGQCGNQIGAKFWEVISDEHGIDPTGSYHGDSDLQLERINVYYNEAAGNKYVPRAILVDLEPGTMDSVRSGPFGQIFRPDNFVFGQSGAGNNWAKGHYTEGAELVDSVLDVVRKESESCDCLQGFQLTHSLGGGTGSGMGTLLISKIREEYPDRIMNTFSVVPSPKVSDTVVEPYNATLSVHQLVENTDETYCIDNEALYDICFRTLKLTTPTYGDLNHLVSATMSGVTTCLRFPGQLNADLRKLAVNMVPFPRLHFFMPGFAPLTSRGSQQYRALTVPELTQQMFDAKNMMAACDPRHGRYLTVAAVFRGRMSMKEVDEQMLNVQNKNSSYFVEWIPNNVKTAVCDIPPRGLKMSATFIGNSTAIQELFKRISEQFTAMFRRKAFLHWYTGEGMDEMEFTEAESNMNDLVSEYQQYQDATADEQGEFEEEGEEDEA
T1 sequence (P02550 whole entry): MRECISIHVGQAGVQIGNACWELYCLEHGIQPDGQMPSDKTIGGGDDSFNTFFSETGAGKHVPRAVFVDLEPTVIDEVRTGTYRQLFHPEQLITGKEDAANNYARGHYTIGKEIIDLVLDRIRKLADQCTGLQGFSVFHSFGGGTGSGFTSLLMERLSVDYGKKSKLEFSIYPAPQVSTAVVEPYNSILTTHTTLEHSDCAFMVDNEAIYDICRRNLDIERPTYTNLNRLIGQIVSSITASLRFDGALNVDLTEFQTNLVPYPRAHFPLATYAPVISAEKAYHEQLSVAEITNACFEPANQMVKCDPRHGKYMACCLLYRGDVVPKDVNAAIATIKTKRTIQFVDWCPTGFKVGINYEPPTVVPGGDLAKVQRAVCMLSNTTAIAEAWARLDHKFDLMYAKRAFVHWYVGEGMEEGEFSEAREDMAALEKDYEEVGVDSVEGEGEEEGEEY
Description: Spontaneous polymerization of 20 µM porcine tubulin was initiated with the addition of 1 mmol/L GTP at 37 °C and monitored every minute for 60 min in the presence of the indicated concentration of CTR-21, CTR-32, nocodazole, paclitaxel, or a DMSO vehicle control. To make the graph simpler, only 3 µM concentration is shown. […] A modified Dixon plot was used to determine the inhibitory concentration of CTR-21 and CTR-32 (Ki).
Microtubule assembly was assessed using a Tubulin Polymerization assay kit (BK011P; Cytoskeleton Inc., Denver, CO). […] Polymerization was started by incubating at 37 °C and followed by absorbance readings every 1 min at 340 nm for 1 h using a Synergy H4 plate reader.

Row | SMILES | GI50 [1] | GI50 [2] | GI50 [3] | GI50 [4] | GI50 [5] | GI50 [6] | GI50 [7] | GI50 [8] | GI50 [9] | GI50 [10] | cell cycle effect [11] | potency compared to CTR-17 [12] | GI50 ([12]; average over the cell lines of Table 1 or Supplemental Table S1, read-out: average GI50) | effect on tubulin polymerization [13]
1 | COc1ccc2cc(/C=C/C(=O)c3ccccc3OC)c(=O)[nH]c2c1 [CTR-19, (E)-7-Methoxy-3-(3-(2-methoxyphenyl)-3-oxoprop-1-enyl) quinolin-2(1H)-one] | 6.82 ± 1.39 µM | 11.9 µM | 6.51 ± 1.39 µM | 4.72 ± 2.76 µM | 3.54 ± 0.06 µM | 6.83 ± 0.957 µM | 10.1 µM | 11.2 µM | 3.77 ± 0.206 µM | 7.09 ± 1.06 µM | arrests cells in G2/M, albeit at a much higher concentration | lower toxicity potency | 7.3 µM | –
2 | COC(=O)Nc1nc2ccc(C(=O)c3cccs3)cc2[nH]1 [Noco, Nocodazole, reference compound] | 0.025 ± 0.001 µM | 0.033 ± 0.007 µM | 0.035 ± 0.004 µM | 0.018 ± 0.002 µM | 0.048 ± 0.007 µM | 0.023 ± 0.002 µM | 0.051 ± 0.011 µM | 0.039 ± 0.001 µM | 0.034 ± 0.003 µM | 0.047 ± 0.011 µM | – | – | – | reduced steady-state
